Holding throughout (type): cell-based, mouse
The subject of experiment [1] is E3D1 MECs. Put plainly: Steady-state laminin internalization, flow cytometry. The following applies: 18 hrs; for MFI of steady-state laminin endocytosis in presence of MMP inhibitor: GM6001 50 μM (vehicle 20.2±1.82, n=4), BB2416 5 μM (vehicle 20.85, n=2); for effect of MMP inhibitor on steady-state laminin endocytosis: GM6001 50 μM, BB2416 5 μM. The protocol:
Endocytic internalization of laminin was confirmed by multiple methods. Laminin was labeled with the pH-sensitive fluorescent label CypHer-5 (CyPher-Ln) to exclusively image internalized laminin in attached, living cells. The fluorophore CypHer-5 is non fluorescent at pH 7.4 and maximally fluorescent at pH 5.5, permitting fluorescence detection of laminin within intracellular acidic vesicles (pH 4.8-6.0). Following overnight incubation of MECs with CypHer-Ln, live cell imaging detected bright fluorescent vesicles moving rapidly within the cytoplasm (FIG. 3A). Intracellular laminin within the cytoplasm was also independently observed via removal of surface bound laminin followed by confocal imaging. MECs were exposed to 10 μg/ml Rhod-Ln for 18 hrs, trypsinized, washed with PBS/EDTA to remove surface-bound laminin, allowed to re-attach, and stained with the membrane marker FITC-concanavalin A (conA). […] This method of cell treatment permitted a quantitative, flow cytometry-based assay of laminin internalization. In this assay, cells incubated with Rhod-Ln were trypsinized, washed (as in FIG. 3B), and the remaining internal Rhod-Ln fluorescence quantified by flow cytometry. Using this assay, laminin internalization was confirmed in diverse cell types including in primary mammary epithelial cultures, mammary epithelial cell lines (E3D1, MEpG), […] fibroblasts (NIH 3T3 cells), primary astrocytes, and human cancer cell lines (breast and glioma).
(§1) To explore the dynamics of laminin internalization, steady-state time course experiments (measuring internalization in the continuous presence of labeled laminin) and pulsed time course experiments were performed. In pulsed time course experiments, the cells were exposed to exogenous Rhod-Ln at 4° C. to prevent internalization, excess unbound Rhod-Ln was washed away, and then cells were returned to 37° C. to allow synchronized internalization and trafficking to proceed. […] Following pulsed and synchronized laminin exposure, Rhod-Ln was again observed to internalize within 1 hour, but reached a maximum at 8 hours, after which the levels of internal laminin declined (FIG. 4A). After 24 hours, internal Rhod-Ln levels declined to ˜37% of the maxima, indicating degradation (MFI: 315±3.5 to 119±11.5). To determine if laminin was degraded using classical degradation pathways, pulsed time course experiments in the presence of leupeptin (lysosome inhibitor) or […] (proteasome inhibitor) were performed.
Laminin internalization could be mediated by either receptor-dependent or receptor independent mechanisms (e.g. pinocytosis). Steady-state laminin internalization was measured using flow cytometry in the presence of potential inhibitors and compared to internalization of 500S FITC-dextran, a molecule of similar molecular size to laminin known to be endocytosed by receptor-independent mechanisms. The specific inhibitor of dynamin, dynasore (Macia E et al, Dev Cell, 839-850 (2006); incorporated by reference herein), inhibited internalization of laminin by >75% (FIG. 6A). Under hypertonic sucrose, a condition known to inhibit receptor-mediated endocytosis (Heuser J E and Anderson R G, J Cell Biol 108, 389-400 (1989); incorporated by reference herein) laminin internalization was reduced by 65% (FIG. 6A). Addition of heparin, a molecule known to bind the laminin LG4-5 domain (Harrison D et al, J Biol Chem 282, 11573-11581 (2007); incorporated by reference herein), decreased laminin internalization by 69% relative to controls (FIG. 6A). […] Specifically, under steady state, laminin internalization was nearly linear throughout the 24 hour time course, whereas dextran internalization plateaued after 16 hrs.
Flow Cytometry—Cells were plated in 12 well plates at 200,000 cells/well. The following day, media was changed to serum-free media with or without 10 μg/ml rhodamine laminin or 40 μg/ml FITC-dextran (500S-Sigma-Aldrich Corp., St. Louis, Mo., USA). […]

The test system of experiment [2] is E3D1 MECs. Kind of experiment: Pulsed time course of Rhod-Ln internalization, flow cytometry. The following applies: pulsed, 24 hrs post laminin labeling, n=4; for MFI of internal Rhod-Ln in presence of inhibitor: vehicle 105.5±3. As for the experimental part:
as §1
Laminin labeling—Laminin-111 (1 mg) (Sigma-Aldrich Corp., St. Louis, Mo., USA) was dialyzed twice overnight against 500 ml of PBS with 10 μM CaCl2. The dialyzed laminin was then reacted with 10 μg NHS-rhodamine, or a 50 fold molar excess of NHS409 CypHer5 (GE) for 2 hr on ice, followed by dialysis twice overnight against 500 ml of PBS with 10 μM CaCl2.
Flow Cytometry—Cells were plated in 12 well plates at 200,000 cells/well. The following day, media was changed to serum-free media with or without 10 μg/ml rhodamine laminin or 40 μg/ml FITC-dextran (500S-Sigma-Aldrich Corp., St. Louis, Mo., USA). Unless otherwise indicated, cells were incubated 18-24 hrs, washed once with PBS, and cells trypsinized. Cells were washed in 5 ml cold PBS/1 mM EDTA, pelleted, and resuspended in 1 ml PBS/1 mM EDTA. Using a BD FACScan flow cytometer (BD Biosciences, San Jose, Calif., USA), 10,000 cells/well were counted, background fluorescence from the cell counts with no added laminin subtracted and the mean fluorescence intensity values reported. Graphed data are compiled from duplicate wells from each experiment with a minimum of three separate experiments, unless indicated otherwise.
(Flow cytometry measures light scatter and fluorescence of single cells or particles in a stream.)

In experiment [3] the test system is E3D1 MECs. Put plainly: FITC-dextran (500S) internalization, flow cytometry. The following applies: steady state, 24 hour time course. The protocol: Laminin internalization could be mediated by either receptor-dependent or receptor independent mechanisms (e.g. pinocytosis). Steady-state laminin internalization was measured using flow cytometry in the presence of potential inhibitors and compared to internalization of 500S FITC-dextran, a molecule of similar molecular size to laminin known to be endocytosed by receptor-independent mechanisms. The specific inhibitor of dynamin, dynasore (Macia E et al, Dev Cell, 839-850 (2006); incorporated by reference herein), inhibited internalization of laminin by >75% (FIG. 6A). Under hypertonic sucrose, a condition known to inhibit receptor-mediated endocytosis (Heuser J E and Anderson R G, J Cell Biol 108, 389-400 (1989); incorporated by reference herein) laminin internalization was reduced by 65% (FIG. 6A). Addition of heparin, a molecule known to bind the laminin LG4-5 domain (Harrison D et al, J Biol Chem 282, 11573-11581 (2007); incorporated by reference herein), decreased laminin internalization by 69% relative to controls (FIG. 6A). […]
Flow Cytometry—Cells were plated in 12 well plates at 200,000 cells/well. […] Using a BD FACScan flow cytometer (BD Biosciences, San Jose, Calif., USA), 10,000 cells/well were counted, background fluorescence from the cell counts with no added laminin subtracted and the mean fluorescence intensity values reported. […]

[4] abbreviates: Mus musculus, steady-state, 10 μg/ml Rhod-Ln, 40 μM dynasore, 320 mM sucrose, 100 μg/ml heparin.

Peptide text beside a SMILES is read from it. * marks the point of attachment. Cbz = O=C(OCc1ccccc1)*

The inhibition is the percentage by which the read-out fell short of the control.

Consider `CNC(=O)[C@@H](NC(=O)[C@H](CC(C)C)[C@H](O)C(=O)NO)C(C)(C)C` [BB2416], for which, in experiment [1], the “MFI of steady-state laminin endocytosis in presence of MMP inhibitor” value is listed as 20.46 and the “effect of MMP inhibitor on steady-state laminin endocytosis” value is “no significant effect”.
As to `CNC(=O)[C@H](Cc1c[nH]c2ccccc12)NC(=O)[C@@H](CC(=O)NO)CC(C)C` [GM6001], in experiment [1], the “MFI of steady-state laminin endocytosis in presence of MMP inhibitor” value was found to be 18.62±1 and the “effect of MMP inhibitor on steady-state laminin endocytosis” value was “no significant effect”.
Regarding `CC(C)C[C@@H](C=O)NC(=O)[C@H](CC(C)C)NC(=O)[C@H](CC(C)C)NC(=O)OCc1ccccc1` [MG-231] (Cbz-Leu-Leu-Leu-aldehyde), in experiment [2], the “increase in internal Rhod-Ln compared to vehicle controls” value amounted to 59% and the “MFI of internal Rhod-Ln in presence of inhibitor” value came to 167.5±7.
Take `O=C(N/N=C/c1ccc(O)c(O)c1)c1cc2ccccc2cc1O` [dynasore]: the inhibition at 40 µM in experiment [1] (setting [4]) was over 75%.
Consider `CC(=O)N[C@@H](CC(C)C)C(=O)N[C@@H](CC(C)C)C(=O)N[C@H](C=O)CCCNC(=N)N` [leupeptin], for which, in experiment [2], the “increase in internal Rhod-Ln compared to vehicle controls” value is on record as 153% and the “MFI of internal Rhod-Ln in presence of inhibitor” value amounted to 266±11.2.
On to `OC[C@H]1O[C@@](CO)(O[C@H]2O[C@H](CO)[C@@H](O)[C@H](O)[C@H]2O)[C@@H](O)[C@@H]1O` [sucrose], for which, in experiment [1] (setting [4]), the inhibition at 320000 µM turned out to be 65%.
Turning to FITC-dextran, in experiment [3], the “time to plateau of dextran internalization” value was over 16 h.
In the case of heparin, the “inhibition of laminin internalization” value in experiment [1] (steady-state, 10 μg/ml Rhod-Ln, 40 μM dynasore, 320 mM sucrose, 100 μg/ml heparin) is listed as 69%.
